Experimental data as given in patent US20110144127A1, “AGENTS FOR TREATMENT OF GLAUCOMATOUS RETINOPATHY AND OPTIC NEUROPATHY” (ALCON INC., priority 2003, published 2011).

Tests used:
[1] = test system: cultured adult rat retinal ganglion cells; assay: Glutamate-induced toxicity in cultured adult rat retinal ganglion cells (survival by counting Thy-1-positive healthy cells); format: cell-based
Experimental: Cells were treated with the indicated compounds for 3 days. Survival was assayed by counting Thy-1-positive healthy cells. The asterisk * represents a significant difference from the control values by one-way ANOVA analysis of variance between groups, then Dunnett's test.
Adult Sprague-Dawley rats were euthanized by CO2 asphyxiation. Their eyes were enucleated and placed in NEUROBASAL™ medium (Gibco, Gaithersburg, Md.). The retina from each eye was detached and isolated. Retinal cells were dissociated by combining up to 20 retinae with 5 mL of papain solution containing 10 mg papain, 2 mg DL-cysteine, and 2 mg bovine serum albumin in 5 ml of NEUROBASAL™ medium, for 25 min at 37° C., then washed 3 times with 5 mL RGC medium (NEUROBASAL™) medium supplemented as cited in Example 2 and with 1% fetal calf serum. Retinal pieces were triturated by passing through a fire-polished disposable pipet several times until cells were dispersed. The cell suspension was placed onto a poly-D-lysine- and laminin-coated 8-well chambered culture slide. […] The cells were then cultured at 95% air/5% CO2 at 37° C. for three days.
At the end of the incubation period, the cells were fixed and labeled for Thy-1, a RGC marker, by immunocytochemistry. Cell survival was quantified by manually counting Thy-1-positive healthy cells in each well.

[2] = test system: quinone reductase, glutathione-S-transferase, and glutathione reductase; conditions: various cell lines including human adult retinal pigment epithelial cells; cited from earlier work

With `N[C@@H](CCC(=O)O)C(=O)O` [glutamate] the “reduction of the surviving cells” value ([1]; glutamate 100 μM for 3 days, adult rat RGC) was 40-60%.
For `C[S+]([O-])CCCCN=C=S` (stereo not drawn) [sulforaphane], the “protection from glutamate-induced toxicity (survival of Thy-1-positive healthy cells)” value ([1]; sulforaphane 0.5 μM with glutamate 100 μM, 3 days, adult Sprague-Dawley rat RGC) is given as “prevented such toxicity” and the “induction of detoxification enzymes” value [2] is given as “known to induce quinone reductase, glutathione-S-transferase, and glutathione reductase”.
